Measurements as given in US10624948B2, “Use of cell-permeable peptide inhibitors of the JNK signal transduction pathway for the treatment of various diseases” (Xigen Inflammation Ltd., priority 2013, dated 2020).
Square brackets hold non-standard residues; d marks the D form. Ends that are not written are not given here.

Columns and labels:
[1] = system: Sprague-Dawley albino rats, light-induced photoreceptor cell death; assay type: in vivo
Protocol: The aim of this study was to investigate the dose effect of XG-102 on light-induced photoreceptor cell death.
Test item (XG-102: 30 mg/ml, 3 mg/ml, and 0.3 mg/ml) and vehicle (0.9% NaCl) were administered by intravitreal injection in right eyes the day before induction. The reference (Phenyl-N-test-Butylnitrone (PBN) (50 mg/kg)) and vehicle were intraperitoneally injected 30 min before induction then, 3 times during 12 hours of light exposition, then once after induction. Animals were placed in constant light (7000 lux) for 24 h. Electroretinograms (ERG) were recorded before light treatment and on days 9, 16 and 23 after induction. Eyes were then taken for histology and outer nuclear layer (ONL) thickness assessment. The table below summarizes the allocation of animals in treatment groups:
For the intravitreal injection animals were anesthetized by intramuscular injection of a mixture of xylazine/ketamine. Test item (5 μl) and vehicle (5 μl) were injected in the right eye. The injection was performed under an operating microscope in the supratemporal area at pars plana using a 33G-needle mounted on a 50 μl Hamilton. The filled syringe was mounted into the UltraMicroPump III to achieve accurate injection in microliter range. Reference and vehicle were injected intraperitoneally at a dose volume of 2.5 ml/kg using a 30G-needle mounted on a 1 ml-syringe.
Light Exposure: The rats that had been dark-adapted overnight were exposed for 24 hours to a continuous white fluorescent light (7000 lx) in clear plastic cages. Each cage contained one rat. After exposure, the rats returned to rearing cyclic light conditions.
ERG was recorded before induction and 7, 14 and 21 days after cessation of exposure (Days 9, 16 and 23) on right eyes of dark-adapted and anesthezied animals. The latency times (for a- and b-wave) and the a-wave and b-wave amplitudes were measured for each ERG; the latency times were expressed as millisecond and the a-wave and b-wave as a percentage of the baseline value obtained before light exposure. 15 min before measurement 10 μl Mydriaticum® (0.5% tropicamide) were instilled for pupillary dilatation.
Measurement of the ONL Thickness: After ERG testing, animal was euthanized by an overdose of pentobarbital and the right eyes were enucleated, fixed and embedded in paraffin. Sections (5 μm thick) were performed along the vertical meridian and stained with Trichrome-Masson. The vertical meridian included the optic nerve.

[2] = system: TC-3 cell cultures; test: Cellular import of fluorescein labeled TAT and TAT-IB1(s) peptides; assay type: cell-based; settings: labeled peptides 1 μM
Protocol: The ability of the L- and D-enantiomeric forms of TAT and TAT-IB1(s) peptides (“TAT-IB peptides”) to enter cells was evaluated. L-TAT, D-TAT, L-TAT-IB1(s), and D-TAT-IB1(s) peptides [SEQ ID NOs: 5, 6, 9 and 12, respectively] were labeled by N-terminal addition of a glycine residue conjugated to fluorescein. Labeled peptides (1 μM) were added to TC-3 cell cultures, which were maintained as described in Example 3. At predetermined times cells were washed with PBS and fixed for five minutes in ice-cold methanol-acetone (1:1) before being examined under a fluorescence microscope. Fluorescein-labeled BSA (1 μM, 12 moles/mole BSA) was used as a control.
Little to no signal was present at 48 hours.
Fluorescent signals from these all-D retro-inverso peptides were still very strong 1 week later, and the signal was only slightly diminished at 2 weeks post treatment.

[3] = system: recombinant JNK1, JNK2 and JNK3; test: Solid phase kinase assay, phosphorylation of c-Jun, ATF2 and Elk1; assay type: biochemical; settings: dose response 0-25 μM
Protocol: The effects of the peptides on JNKs-mediated phosphorylation of their target transcription factors were investigated in vitro. Recombinant and non activated JNK1, JNK2 and JNK3 were produced using a TRANSCRIPTION AND TRANSLATION rabbit reticulocyte lysate kit (Promega) and used in solid phase kinase assays with c-Jun, ATF2 and Elk1, either alone or fused to glutathione-S-transferase (GST), as substrates. Dose response studies were performed wherein L-TAT or L-TAT-IB1(s) peptides (0-25 μM) were mixed with the recombinant JNK1, JNK2, or JNK3 kinases in reaction buffer (20 mM Tris-acetate, 1 mM EGTA, 10 mM p-nitrophenyl-phosphate (pNPP), 5 mM sodium pyrophosphate, 10 mM p-glycerophosphate, 1 mM dithiothreitol) for 20 minutes. The kinase reactions were then initiated by the addition of 10 mM MgCl2 and 5 pCi ^33P-dATP and 1 μg of either GST-Jun (aa 1-89), GST-AFT2 (aa 1-96) or GST-ELK1 (aa 307-428). GST-fusion proteins were purchased from Stratagene (La Jolla, Calif.).
Ten μL of glutathione-agarose beads were also added to the mixture. Reaction products were then separated by SDS-PAGE on a denaturing 10% polyacrylamide gel. Gels were dried and subsequently exposed to X-ray films (Kodak). […] The ability of D-TAT, D-TAT-IB1(s) and L-TAT-IB1(s) peptides (0-250 μM dosage study) to inhibit GST-Jun (aa 1-73) phosphorylation by recombinant JNK1, JNK2, and JNK3 by were analyzed as described above. […]

[4] = system: JNKs from UV-light irradiated HeLa cells or IL-1 treated PTC cells; test: c-Jun phosphorylation by activated JNKs pulled down with GST-Jun; assay type: biochemical; settings: 25 μM
Protocol: The effects of the L-TAT or L-TAT-IB1(s) peptides as defined herein on JNKs activated by stressful stimuli were evaluated using GST-Jun to pull down JNKs from UV-light irradiated HeLa cells or IL-1 treated PTC cells. PTC cells were cultured as described above. HeLa cells were cultured in DMEM medium supplemented with 10% Fetal Calf Serum, 100 μg/mL Streptomycin, 100 units/ml Penicillin and 2 mM Glutamine. One hour prior to being used for cell extract preparation, PTC cells were activated with IL-1 as described above, whereas HeLa cells were activated by UV-light (20 J/m^2). Cell extracts were prepared from control, UV-light irradiated HeLa cells and IL-1 treated TC-3 cells by scraping the cell cultures in lysis buffer (20 mM Tris-acetate, 1 mM EGTA, 1% Triton X-100, 10 mM p-nitrophenyl-phosphate, 5 mM sodium pyrophosphate, 10 mMP-glycerophosphate, 1 mM dithiothreitol). Debris was removed by centrifugation for five minutes at 15,000 rpm in an SS-34 Beckman rotor. One-hundred μg extracts were incubated for one hour at room temperature with one μg GST-jun (amino acids 1-89) and 10 μL of glutathione-agarose beads (Sigma). Following four washes with the scraping buffer, the beads were resuspended in the same buffer supplemented with L-TAT or L-TAT-IB1(s) peptides (25 μM) for 20 minutes. […]

[5] = system: JNK signaling in HeLa cells (GAL-Jun, MKK4/MKK7); test: GAL4 luciferase reporter of c-Jun activation; assay type: cell-based; settings: 1 μM, 16 hours
Excerpt: To determine whether the cell-permeable peptides as defined herein could block JNK signaling in vivo, we used a heterologous GAL4 system. HeLa cells, cultured as described above, were co-transfected with the 5×GAL-LUC reporter vector together with the GAL-Jun expression construct (Stratagene) comprising the activation domain of c-Jun (amino acids 1-89) linked to the GAL4 DNA-binding domain. Activation of JNK was achieved by the co-transfection of vectors expressing the directly upstream kinases MKK4 and MKK7 (see Whitmarsh et al., Science 285: 1573 (1999)). Briefly, 3×10^5 cells were transfected with the plasmids in 3.5-cm dishes using DOTAP (Boehringer Mannheim) following instructions from the manufacturer. For experiments involving GAL-Jun, 20 ng of the plasmid was transfected with 1 μg of the reporter plasmid pFR-Luc (Stratagene) and 0.5 μg of either MKK4 or MKK7 expressing plasmids. Three hours following transfection, cell media were changed and TAT and TAT-IB1(s) peptides (1 μM) were added. The luciferase activities were measured 16 hours later using the “Dual Reporter System” from Promega after normalization to protein content. […] Because HeLa cells express JNK1 and JNK2 isoforms but not JNK3, we transfected cells with JNK3.

[6] = system: TC-3 cells; test: IL-1 induced pancreatic beta-cell death; assay type: cell-based; settings: one single addition 1 μM
Protocol: Inhibition of IL-1 induced pancreatic beta-cell death by the D-TAT-IB1(s) peptide was analyzed. TC-3 cells were incubated as described above for 30 minutes with one single addition of the indicated peptides (1, μM), then IL-1 (10 ng/ml) was added.
Apoptotic cells were then counted after two days of incubation with IL-1 by use of Propidium Iodide and Hoechst 33342 nuclear staining. A minimum of 1,000 cells were counted for each experiment. Standard Error of the Means (SEM) are indicated, n=5.
Long term inhibition of IL-1P induced cell-death by the D-TAT-IB1 peptide was also analyzed. TC-3 cells were incubated as above for 30 minutes with one single addition of the indicated peptides (1 μM), then IL-1 (10 ng/ml) was added, followed by addition of the cytokine every two days. Apoptotic cells were then counted after 15 days of incubation with IL-1 by use of propidium iodide and Hoechst 33342 nuclear staining. […] A minimum of 1.000 cells were counted for each experiment.

[7] = system: AP-1 DNA binding complex, HeLa cell nuclear extracts; test: Gel retardation assay with AP-1 probe; assay type: cell-based; settings: in the presence of TNF-alpha

CC(C)(C)[N+]([O-])=Cc1ccccc1 [PBN, Phenyl-N-tert-Butylnitrone, reference compound]
decrease of mean ONL thickness vs untreated eyes ([1]; PBN i.p., Day 23): 16%
ERG B-wave amplitude, percent of the baseline, Mean ± SD ([1]; rat, in vivo, ip, 50 mg/kg): 100 ± 18.6%

Fluorescein-labeled BSA: fluorescein labeled bovine serum albumin (1 μM BSA, 12 moles fluorescein/mole BSA), control
entry into cells [2]: did not enter the cells

GRKKRRQRRRPPRPKRPTTLNLFPQVPRSQD (Description of sequence: L-TAT-IB1 (s) (see Table 1)) [L-TAT-IB1(s)]
peptide dose giving nearly complete inhibition of c-Jun, ATF2 and Elk1 phosphorylation by JNKs [3]: 2.5 µM
prevention of phosphorylation of c-Jun by activated JNKs [4]: efficiently prevented phosphorylation of c-Jun by activated JNKs
activation of c-Jun following MKK4 and MKK7 mediated activation of JNK (luciferase) [5]: blocked activation of c-Jun following MKK4 and MKK7 mediated activation of JNK
long term (15 day) protection from IL-1 induced cell-death ([6]; IL-1 every two days): but not L-TAT-IB1(s), was able to confer long term (15 day) protection
formation of the AP-1 DNA binding complex [7]: decrease the formation of the AP-1 DNA binding complex

TDQSRPVQPFLNLTTPRKPRYTDPPRRRQRRKKRG ([dT][dD][dQ][dS][dR][dP][dV][dQ][dP][dF][dL][dN][dL][dT][dT][dP][dR][dK][dP][dR][dY][dT][dD][dP][dP][dR][dR][dR][dQ][dR][dR][dK][dK][dR]G) [D-TAT-IB1]
IL-1 induced apoptosis after two days ([6]; IL-1 10 ng/ml): decreased IL-1 induced apoptosis to a similar extent as L-TAT-IB peptides
